Values joined by “and” are separate entries in the source; they are usually repeats but may differ in a detail not shown here. Equal values may be shown once. Inconclusive results and toxic doses are left out. Rule for the calls: active = survival T/C of 150% or more; inactive = T/C below 125% in these data.
System: BDF1 mice, P388 leukemia ip, median survival T/C
Experiment: NCI In Vivo Anticancer Drug Screen. Data for tumor model P388 Leukemia (intraperitoneal) in B6D2F1 (BDF1) mice
Conditions: endpoint: median survival time, higher = longer survival
Summary of the method: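 In tumour-bearing mice, survival after compound treatment is set against the vehicle group and given as a quotient.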

[1] = dose: 100.0 mg/kg/injection, schedule: Q01DX009 (ip), vehicle: Klucel (hydroxypropylcellulose) (HPC)
[2] = dose: 100.0 mg/kg/injection, schedule: Q04DX003 (ip), vehicle: Klucel (hydroxypropylcellulose) (HPC)
[3] = dose: 200.0 mg/kg/injection, schedule: Q01DX009 (ip), vehicle: Klucel (hydroxypropylcellulose) (HPC)
[4] = dose: 200.0 mg/kg/injection, schedule: Q04DX003 (ip), vehicle: Klucel (hydroxypropylcellulose) (HPC)
[5] = dose: 400.0 mg/kg/injection, schedule: Q04DX003 (ip), vehicle: Klucel (hydroxypropylcellulose) (HPC)
[6] = dose: 12.5 mg/kg/injection, schedule: Q01DX009 (ip), vehicle: distilled water + Tween-80
[7] = dose: 25.0 mg/kg/injection, schedule: Q01DX009 (ip), vehicle: distilled water + Tween-80
[8] = dose: 50.0 mg/kg/injection, schedule: Q01DX009 (ip), vehicle: distilled water + Tween-80
[9] = dose: 100.0 mg/kg/injection, schedule: Q01DX009 (ip), vehicle: distilled water + Tween-80
[10] = dose: 100.0 mg/kg/injection, schedule: Q04DX003 (ip), vehicle: saline with Tween-80
[11] = dose: 200.0 mg/kg/injection, schedule: Q04DX003 (ip), vehicle: saline with Tween-80
[12] = dose: 400.0 mg/kg/injection, schedule: Q04DX003 (ip), vehicle: saline with Tween-80
[13] = dose: 50.0 mg/kg/injection, schedule: Q01DX009 (ip), vehicle: other
[14] = dose: 100.0 mg/kg/injection, schedule: Q01DX009 (ip), vehicle: other

Measured: T/C

O=C1c2ccccc2C(=O)N1CNc1ccc(Cc2ccc(NCN3C(=O)c4ccccc4C3=O)c(Cl)c2)cc1Cl
inactive: [1] 100 % of control | [2] 100 % of control | [3] 100 % of control | [4] 95 % of control | dose: 400.0 mg/kg/injection, schedule: Q01DX009 (ip), vehicle: Klucel (hydroxypropylcellulose) (HPC) 90 % of control | [5] 95 % of control

Cc1cccc2cc3cccc(C)[n+]3cc12
inactive: dose: 5.0 mg/kg/injection, schedule: Q01DX010 (ip), vehicle: saline 100 % of control

C[n+]1c(-c2cccc3ccccc23)c2cc([N+](=O)[O-])ccc2c2ccccc21
inactive: dose: 1.0 mg/kg/injection, schedule: Q04DX003 (ip), vehicle: water 113 % of control | dose: 2.0 mg/kg/injection, schedule: Q04DX003 (ip), vehicle: water 104 % of control | dose: 4.0 mg/kg/injection, schedule: Q01DX009 (ip), vehicle: water 118 % of control | dose: 4.0 mg/kg/injection, schedule: Q04DX003 (ip), vehicle: water 115 % of control | dose: 8.0 mg/kg/injection, schedule: Q04DX003 (ip), vehicle: water 97 % of control and 108 % of control | dose: 16.0 mg/kg/injection, schedule: Q04DX003 (ip), vehicle: water 109 % of control | dose: 32.0 mg/kg/injection, schedule: Q01DX009 (ip), vehicle: water 109 % of control | dose: 32.0 mg/kg/injection, schedule: Q04DX003 (ip), vehicle: water 106 % of control

Cc1cc(=O)oc2c(N)nccc12
inactive: dose: 12.5 mg/kg/injection, schedule: Q01DX005 (ip), vehicle: saline with Tween-80 121 % of control

O=CNNS(=O)(=O)/C=C/c1ccccc1
inactive: [6] 106 % of control | [7] 105 % of control | [8] 102 % of control | [9] 89 % of control | dose: 200.0 mg/kg/injection, schedule: Q01DX009 (ip), vehicle: distilled water + Tween-80 89 % of control

c1ccc(CNCCN(Cc2ccccc2)Cc2ccccc2)cc1
inactive: dose: 0.78 mg/kg/injection, schedule: Q01DX009 (ip), vehicle: water 105 % of control | dose: 1.56 mg/kg/injection, schedule: Q01DX009 (ip), vehicle: water 106 % of control | dose: 3.12 mg/kg/injection, schedule: Q01DX009 (ip), vehicle: water 99 % of control and 101 % of control | dose: 6.25 mg/kg/injection, schedule: Q01DX009 (ip), vehicle: water 93 % of control and 110 % of control | dose: 12.5 mg/kg/injection, schedule: Q01DX009 (ip), vehicle: water 110 % of control and 115 % of control | dose: 25.0 mg/kg/injection, schedule: Q01DX009 (ip), vehicle: water 101 % of control

CCOC(=O)/C(O)=C(\C=N\C(N)=O)C(=O)OCC
inactive: dose: 50.0 mg/kg/injection, schedule: Q04DX003 (ip), vehicle: saline sonified 100 % of control | dose: 100.0 mg/kg/injection, schedule: Q04DX003 (ip), vehicle: saline sonified 105 % of control | dose: 200.0 mg/kg/injection, schedule: Q04DX003 (ip), vehicle: saline sonified 110 % of control

C=C(C)c1ccccc1S(=O)(=O)c1ccccc1C(C)(C)O
inactive: [10] 105 % of control | [11] 110 % of control | [12] 114 % of control

N/C(=N\OS(=O)(=O)c1ccccc1)OC1CCCCC1
inactive: [10] 99 % of control | [11] 98 % of control | [12] 98 % of control

O=[N+]([O-])c1cccc(Oc2ncccc2[N+](=O)[O-])c1
inactive: dose: 65.0 mg/kg/injection, schedule: Q04DX003 (ip), vehicle: Klucel (hydroxypropylcellulose) (HPC) 118 % of control | [2] 109 % of control | dose: 150.0 mg/kg/injection, schedule: Q04DX003 (ip), vehicle: Klucel (hydroxypropylcellulose) (HPC) 109 % of control | [4] 105 % of control | [5] 115 % of control

CCOC(=O)c1c[nH]c(=S)n1C
inactive: [1] 95 % of control | [2] 95 % of control | [3] 104 % of control | [4] 91 % of control

COc1ccc(-c2cc(=O)c3ccc4cc(OC)c(OC)cc4c3o2)cc1
inactive: dose: 1.56 mg/kg/injection, schedule: Q01DX009 (ip), vehicle: distilled water + Tween-80 102 % of control | dose: 3.13 mg/kg/injection, schedule: Q01DX009 (ip), vehicle: distilled water + Tween-80 86 % of control | dose: 6.25 mg/kg/injection, schedule: Q01DX009 (ip), vehicle: distilled water + Tween-80 87 % of control | [6] 89 % of control

O=C1C(Cl)=C(N2CCOCC2)C(=O)c2ccccc21
inactive: dose: 6.25 mg/kg/injection, schedule: Q01DX009 (ip), vehicle: Klucel (hydroxypropylcellulose) (HPC) 118 % of control | dose: 12.5 mg/kg/injection, schedule: Q01DX009 (ip), vehicle: Klucel (hydroxypropylcellulose) (HPC) 108 % of control | dose: 25.0 mg/kg/injection, schedule: Q01DX009 (ip), vehicle: Klucel (hydroxypropylcellulose) (HPC) 114 % of control

COc1ccc(OC(=O)CCCl)cc1
inactive: [10] 100 % of control | [11] 100 % of control | [12] 113 % of control

OCC1(O)CC(O)C(O)(CO)CC1O (stereo not given)
inactive: [13] 104 % of control | dose: 50.0 mg/kg/injection, schedule: Q04DX003 (ip), vehicle: saline 104 % of control | [14] 95 % of control | dose: 100.0 mg/kg/injection, schedule: Q04DX003 (ip), vehicle: saline 116 % of control | dose: 200.0 mg/kg/injection, schedule: Q01DX009 (ip), vehicle: other 118 % of control | dose: 200.0 mg/kg/injection, schedule: Q04DX003 (ip), vehicle: saline 95 % of control

[Cl][Eu]([Cl])[Cl]
inactive: dose: 6.25 mg/kg/injection, schedule: Q01DX009 (ip), vehicle: saline 98 % of control | dose: 12.5 mg/kg/injection, schedule: Q01DX009 (ip), vehicle: saline 100 % of control | dose: 25.0 mg/kg/injection, schedule: Q01DX009 (ip), vehicle: saline 92 % of control | dose: 50.0 mg/kg/injection, schedule: Q01DX009 (ip), vehicle: saline 96 % of control

O=C(NC(CO)C(O)c1ccc([N+](=O)[O-])cc1)C(Cl)Cl (stereo not given)
inactive: [10] 104 % of control | [11] 100 % of control | [12] 109 % of control

[NH-]C(CO)C(=O)O.[NH-]C(CO)C(=O)O.[Pt+2] (stereo not given)
inactive: [6] 115 % of control | [7] 117 % of control | [8] 115 % of control | [9] 115 % of control

CNC(=S)N/N=C(/C)CCC(=O)O
inactive: dose: 6.75 mg/kg/injection, schedule: Q01DX009 (ip), vehicle: saline with Tween-80 87 % of control | dose: 13.5 mg/kg/injection, schedule: Q01DX009 (ip), vehicle: saline with Tween-80 88 % of control | dose: 27.0 mg/kg/injection, schedule: Q01DX009 (ip), vehicle: saline with Tween-80 86 % of control

O=C(c1cccs1)C1Cc2ccccc2C1=O (stereo not given)
inactive: dose: 100.0 mg/kg/injection, schedule: Q01DX009 (ip), vehicle: saline with Tween-80 100 % of control | dose: 200.0 mg/kg/injection, schedule: Q01DX009 (ip), vehicle: saline with Tween-80 116 % of control | dose: 400.0 mg/kg/injection, schedule: Q01DX009 (ip), vehicle: saline with Tween-80 100 % of control

c1cc(NC2CCCCC2)ccc1CN1CCOCC1
inactive: [13] 102 % of control and 109 % of control | [14] 116 % of control

Source: PubChem BioAssay AID328 (DTP/NCI, 2004)
